Assay results published in publication PMC4980431, “Ctf4 Is a Hub in the Eukaryotic Replisome that Links Multiple CIP-Box Proteins to the CMG Helicase” (Molecular Cell, 2016).

How the values were obtained:
[1] = biological target: T1, Ctf4 471-927 (Ctf4CTD) (Saccharomyces cerevisiae, UniProt Q01454); details: isolated CIP-boxes; quoted in Discussion; ref Simon et al., 2014; read-out: affinity constant Kd; cited from earlier work
T1 sequence (Q01454 471-927): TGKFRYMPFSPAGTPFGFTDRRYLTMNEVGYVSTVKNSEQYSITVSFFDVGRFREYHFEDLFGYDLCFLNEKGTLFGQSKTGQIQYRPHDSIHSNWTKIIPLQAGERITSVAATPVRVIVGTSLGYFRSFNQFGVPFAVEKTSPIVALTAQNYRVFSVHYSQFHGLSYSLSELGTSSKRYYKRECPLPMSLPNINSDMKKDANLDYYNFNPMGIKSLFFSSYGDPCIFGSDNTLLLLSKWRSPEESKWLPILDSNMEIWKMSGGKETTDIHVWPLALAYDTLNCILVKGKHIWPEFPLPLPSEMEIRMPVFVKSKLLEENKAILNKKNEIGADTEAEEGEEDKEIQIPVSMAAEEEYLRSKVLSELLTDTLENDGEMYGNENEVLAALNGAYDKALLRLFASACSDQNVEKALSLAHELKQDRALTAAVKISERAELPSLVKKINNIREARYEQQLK
Excerpt: The way that CIP-box proteins compete with each other for binding to Ctf4 remains an interesting issue for future investigation.

[2] = test system: Ctf4 471–927; test: Native mass spectrometry; format: binding, budding yeast; details: for direct binding to Ctf4 (in words): 500 mM ammonium acetate, 5-fold or 10-fold molar excess of peptide, 100 μM protein, minimum 30 min
Protocol: In preparation for non-denaturing nano-electrospray ionization mass spectrometry (native mass spectrometry), Ctf4 471–927 was subjected to two successive rounds of buffer exchange into 500 mM ammonium acetate using illustra NAP-5 columns (GE Healthcare). Following buffer exchange, a 5-fold or 10-fold molar excess of Dna2 peptide 207- […] -223 or Tof2 peptide 497- […] -517 solubilized in 500 mM ammonium acetate was mixed with Ctf4CTD at a final protein concentration of 100 μM and incubated for a minimum of 30 min. Native mass spectra were recorded on a Synapt HDMS instrument (Waters) and calibrated using caesium iodide (100 mg ml^−1) as described previously ([Hernández and Robinson, 2007], [Simon et al., 2014]).

[3] = biological target: T1, Ctf4 471-927 (Ctf4CTD); test: Fluorescence anisotropy, peptide binding to Ctf4 471-927; design: species or system budding yeast; details: 40 nM fluorescein-labeled Tof2 peptide, pH 7.2, 25°C, single measurement
Protocol: The lowest concentration of peptide at which the binding studies could be performed was determined via peptide calibration curves. Fluorescence anisotropy measurements were recorded in a PHERAstar Plus multi-detection plate reader (BMG Labtech) equipped with fluorescence polarization optic module (λex = 485 nm; λem = 520 nm) at 25°C. Each data point is the mean of 200 flashes/well. The voltage gain was set by adjusting the target mP values of fluorescein-labeled peptides relative to that of fluorescein (35 mP). Serial dilutions of Ctf4CTD were made in 20 mM HEPES (pH 7.2), 140 mM KCl, and 5% (w/v) glycerol in the presence of 40 nM (Sld5 and Tof2) or 50 nM (Dna2) fluorescein-labeled peptide. For Dna2 peptide, each data point is the mean of three independent experiments and curve fitting to the experimental data was performed in pro Fit 6.2 (QuantumSoft) using a Levenberg-Marquardt fitting algorithm in combination with a Gaussian error distribution analysis.

[4] = test system: Ctf4 471–927 (Ctf4CTD); test: GST pull-down; format: binding, budding yeast; details: GST fusion on Glutathione Sepharose; Ctf4CTD 2 mg/ml, 1 hr 4°C; SDS-PAGE
Protocol: For each Dna2 construct to be tested for interaction with Ctf4CTD, a 25-ml E. coli Rosetta2 (DE3) culture overexpressing the GST-fusion construct was pelleted, resuspended in buffer (50 mM Tris [pH 7.0], 500 mM NaCl, 10% [w/v] glycerol, 1 mM DTT, and protease inhibitors) (Sigma), and lysed by sonication. Following centrifugation, the soluble extract was mixed with 50 μl of Glutathione Sepharose beads (GE Healthcare) pre-equilibrated in the same buffer, and incubated under rotation at 4°C for 1 hr. Unbound protein was removed by three consecutive washes with 1 ml of buffer, followed by three 1-ml washes with pull-down buffer (20 mM HEPES [pH 7.2], 150 mM NaCl, 5% [w/v] glycerol, 0.1% Igepal CA-630, 1 mM TCEP, and 1% BSA). Subsequently, 500 μl of purified Ctf4CTD protein at a concentration of 2 mg/ml was added to the Sepharose beads and binding was allowed to take place for an additional 1 hr at 4°C. The binding reaction was stopped by two consecutive washes with 1 ml of pull-down buffer and a final 1 ml wash with pull-down buffer without BSA. The Sepharose beads were mixed with SDS loading dye and Ctf4CTD interactions with the respective bait proteins were detected via SDS-PAGE.

| Substance | Kd [1] | direct binding to Ctf4 (in words) ([2]; listed as Tof2 CIP) | direct binding to Ctf4 (in words) ([2]; listed as peptide containing the Tof2 CIP-box) | hierarchy of affinities / occupancy of binding sites by CIP-box peptides ([2]; hierarchy of affinities said to be reflected in native MS occupancy, Figures S3B and S4A, Simon et al., 2014) | Kd (result in words) [3] | Kd (result in words) ([3]; listed as Tof2) | pull-down of Ctf4 (in words) [4] |
| --- | --- | --- | --- | --- | --- | --- | --- |
| CIP-box of Sld5: isolated CIP-box of Sld5, affinity quoted from Simon et al., 2014 (MDINIDDILAELDKETTAVD; fluorescein label (N-terminal probable); the exact peptide limits are in Simon et al. 2014) | 5 µM | – | – | – | – | – | – |
| SHAKDVKIQETIRKLNRFKPT [Tof2 peptide] | – | binds directly to Ctf4 | could indeed bind directly to Ctf4 in vitro | Sld5 > Pol1 > Dna2 > Tof2 | too weak to be quantified reliably | not determinable | could indeed bind directly to Ctf4 in vitro |
